From the supplement of paper PMC10307832

Columns and labels:
Experiment in all cases: relative viability (nuclei count vs DMSO), 5 days (fraction); higher = more cells survive
[1] = compound: C1/C(=C\C2=CC=CS2)/C(=O)/C(=C/C3=CC=CS3)/C1 + Cc1cc(Nc2cc(N3CCN(C)CC3)nc(Sc3ccc(NC(=O)C4CC4)cc3)n2)n[nH]1 [Tozasertib] (partner 0.1 µM)
Summary of the method: (§1)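 Relative viability was taken as the ratio of nuclei in treated wells to nuclei in vehicle wells. Lung cancer cell lines in 1536-well plates received compounds by pin tool one day after seeding, either one drug alone or a fixed anchor-drug dose plus five library-drug doses (not always all listed) in √10 steps. Nuclei were counted on 4× images after 5 days of treatment, and values are medians of duplicate plates.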

[2] = compound: C1=CC(=CC=C1C2=CC(=C(S2)NC(=O)N)C(=O)N)F [TPCA-1] + CCNC(=O)c1noc(-c2cc(C(C)C)c(O)cc2O)c1-c1ccc(CN2CCOCC2)cc1 [Luminespib] (partner 0.01 µM)
Summary of the method: as §1

[3] = compound: C1=CC(=CC=C1C2=CC(=C(S2)NC(=O)N)C(=O)N)F [TPCA-1] + Cc1cc(Nc2cc(N3CCN(C)CC3)nc(Sc3ccc(NC(=O)C4CC4)cc3)n2)n[nH]1 [Tozasertib] (partner 0.1 µM)
Summary of the method: as §1

[4] = compound: C[C@]12O[C@H](C[C@]1(O)CO)n1c3ccccc3c3c4c(c5c6ccccc6n2c5c31)CNC4=O [Lestaurtinib] + NC(=O)Nc1cc(-c2cccc(F)c2)sc1C(=O)N[C@H]1CCCNC1 [AZD7762] (partner 0.2 µM)
Summary of the method: as §1

Cell Line	relative viability ([1]; first compound 0.2 µM)	relative viability ([1]; first compound 0.6325 µM)	relative viability ([1]; first compound 2 µM)	relative viability ([1]; first compound 6.325 µM)	relative viability ([1]; first compound 20 µM)	relative viability ([2]; first compound 0.04 µM)	relative viability ([2]; first compound 0.1265 µM)	relative viability ([2]; first compound 0.4 µM)	relative viability ([2]; first compound 1.265 µM)	relative viability ([2]; first compound 4 µM)	relative viability ([3]; first compound 0.04 µM)	relative viability ([3]; first compound 0.1265 µM)	relative viability ([3]; first compound 0.4 µM)	relative viability ([3]; first compound 1.265 µM)	relative viability ([3]; first compound 4 µM)	relative viability ([4]; first compound 0.005 µM)	relative viability ([4]; first compound 0.01581 µM)	relative viability ([4]; first compound 0.05 µM)	relative viability ([4]; first compound 0.1581 µM)	relative viability ([4]; first compound 0.5 µM)
NCI-H522	0.6	0.506	0.523	0.549	0.583	1.13	0.946	1.22	1.15	0.84	0.562	0.589	0.586	0.578	0.553	0.944	0.778	0.842	0.744	0.479
LCLC-97TM1	0.239	0.233	0.227	0.213	0.195	0.877	0.614	0.71	0.541	0.482	0.242	0.261	0.223	0.185	0.117	0.167	0.279	0.166	0.175	0.114
NCI-H3122	0.393	0.498	0.396	0.391	0.442	0.106	0.0887	0.0804	0.0762	0.0832	0.465	0.37	0.463	0.329	0.268	1.05	1.08	1.1	1.32	0.537
NCI-H1395	0.767	0.879	0.91	0.686	0.754	0.762	0.695	0.647	0.709	0.644	0.906	0.69	0.766	0.657	0.61	0.385	0.405	0.407	0.384	0.325
NCI-H2009	0.764	0.814	0.752	0.657	0.81	0.977	1.05	1.01	1.02	1.03	0.8	0.686	0.834	0.649	0.545					
NCI-H1651	0.731	0.671	0.837	0.596	0.718	0.839	0.979	0.835	0.915	1	0.678	0.646	0.794	0.652	0.521	0.447	0.503	0.349	0.558	0.318
HARA	0.121	0.123	0.116	0.101	0.0981	0.791	0.754	0.864	0.83	0.382	0.136	0.118	0.0913	0.0917	0.0916	0.287	0.392	0.282	0.294	0.307
NCI-H1703																0.122	0.115	0.107	0.108	0.0966
NCI-H1650	0.492	0.445	0.395	0.435	0.343	0.225		0.188	0.185	0.197	0.386		0.459	0.339	0.257					
NCI-H1792						0.429	0.237	0.446	0.501	0.367						0.758	0.669	0.556	0.387	0.174
COR-L23	0.223	0.203	0.197	0.185	0.193	0.682	0.602	0.762	0.625	0.381	0.155	0.168	0.18	0.134	0.129					
NCI-H1623	0.479	0.437	0.423	0.394	0.489	0.601	0.555	0.54	0.433	0.426	0.408	0.402	0.454	0.437	0.37					
NCI-H2228	0.239	0.235	0.246	0.145	0.261	0.174	0.139	0.124	0.131	0.117	0.299	0.178	0.285	0.232	0.108					
NCI-H661	0.324	0.361	0.374	0.308	0.36	0.973	0.934	0.962	0.846	0.806	0.376	0.349	0.366	0.345	0.339					
HCC-366	0.105	0.0974	0.101	0.0969	0.0897						0.107	0.135	0.0742	0.0631	0.0314	0.315	0.305	0.339	0.447	0.556
SK-LU-1	0.329	0.385	0.419	0.271	0.36	0.232	0.203	0.212	0.206	0.215	0.333	0.297	0.309	0.253	0.248					
SW 1573	0.175	0.13	0.176	0.158	0.139	0.186	0.181	0.217	0.204	0.188	0.189	0.162	0.181	0.132	0.135					
NCI-H1648	0.598	0.559	0.467		0.4						0.548	0.355	0.486	0.573	0.379		1.47		0.977	0.644
NCI-H2023	0.428	0.507	0.397	0.346	0.259	0.993	0.91	0.779	0.472	0.373	0.357	0.282	0.335	0.15	0.0965					
SK-MES-1	0.922	0.977	0.942	0.818	0.831	0.876	0.763	0.677	0.33	0.365	0.866	0.82	0.933	0.728	0.24					
